One may read the IC50 as the concentration needed to halve the response being measured.

The results in this text go back to ChEMBL document CHEMBL5727253, “Tricyclic compounds and compositions as kinase inhibitors” (2019).

Where “and” joins values, the source holds several entries; their conditions need not be identical. Identical values can stand only once.

This assay can be described thus: Biological Assays: The activity of a compound according to the present invention can be assessed by well-known in vitro & in vivo methods. […] CRAF cDNA was subcloned as full length protein, with Y340E and Y341E activating mutations, into a baculovirus expression vector for Sf9 insect cell expression. h14-3-3 zeta cDNA was subcloned into a baculovirus expression vector for SF9 insect cell expression. Sf9 cells co-expressing both proteins were lysed and subjected to immobilized nickel chromatography and eluted with Imidazole. A second column (StrepII binding column) was used and eluted with desthiobiotin. Protein Tags were removed using Prescission enzyme and the protein was further purified using a flowthrough step to remove tags.C-Raf TR refers to a truncated C-Raf protein, a Δ1-324 deletion mutant. C-Raf FL refers to the full-length C-Raf protein.Full length MEK1 with an inactivating K97R ATP binding site mutation is utilized as a RAF substrate. The MEK1 cDNA was subcloned with an N-terminal (his)6 tag into a vector for E. Coli expression. The MEK1 substrate was purified from E. Coli lysate by nickel affinity chromatography followed by anion exchange. The final MEK1 preparation was biotinylated (Pierce EZ-Link Sulfo-NHS-LC-Biotin) and concentrated.Assay Materials: Assay buffer is 50 mM Tris, pH 7.5, 15 mM MgCl2, 0.01% Bovine Serum Albumin (BSA) and 1 mM dithiothreitol (DTT); Stop buffer is 60 mM ethylenediaminetetraacetic acid (EDTA) and 0.01% Tween® 20; b-Raf (V600E), active; biotinylated Mek, kinase dead; Alpha Screen detection kit (available from PerkinElmer™, #6760617R); Anti phospho-MEK1/2 (available from Cell Signaling Technology, Inc. #9121); 384 well low volume assay plates (White Greiner® plates).Assay conditions: b-Raf (V600E) approximately 4 pM; c-Raf approximately 4 nM; biotinylated Mek, kinase dead approximately 10 nM; ATP 10 μM for BRAF (V600E) and 1 μM for CRAF; Pre-incubation time with compounds 60 minutes at room temperature; Reaction time 1 or 3 hours at room temperature.Assay protocol: Raf and biotinylated Mek (kinase dead) were combined at 2× final concentrations in assay buffer (50 mM Tris, pH 7.5, 15 mM MgCl2, 0.01% BSA and 1 mM DTT) and dispensed […] per well in assay plates (Greiner white 384 well assay plates #781207) containing […] of 40× of a Raf kinase inhibitor test compound diluted in 100% DMSO. The plate was incubated for 60 minutes at room temperature. The Raf kinase activity reaction was started by the addition of […] per well of 2×ATP diluted in assay buffer. After 3 hours (b-Raf(V600E)) or 1 hour (c-Raf). The reactions were stopped and the phosphorylated product was measured using a rabbit anti-p-MEK (Cell Signaling, #9121) antibody and the Alpha Screen IgG (ProteinA) detection Kit (PerkinElmer #6760617R), by the addition of […] to the well of a mixture of the antibody (1:2000 dilution) and detection beads (1:2000 dilution of both beads) in Stop/bead buffer (25 mM EDTA, 50 mM Tris, pH 7.5, 0.01% Tween20). The additions were carried out under dark conditions to protect the detection beads from light. A lid was placed on top of the plate and incubated for 1 hour at room temperature, after which the luminescence was read on a PerkinElmer Envision instrument. It counts as biochemical.
With `CC[C@H]1Cc2nnc(-c3cc(NC(=O)c4ccnc(C(C)(F)F)c4)ccc3C)cc2N2CCOC[C@H]12`, the IC50 worked out at 0.2 nM.
The figure for `CC[C@H]1Cc2nnc(-c3cc(NC(=O)c4ccnc(C(C)(F)F)c4)ccc3C)cc2N2CCOC[C@@H]12` is 0.1 nM.
For `CC[C@@H]1Cc2nnc(-c3cc(NC(=O)c4ccnc(C(C)(F)F)c4)ccc3C)cc2N2CCOC[C@H]12`, the IC50 was determined as 0.1 nM.
In the case of `Cc1ccc(NC(=O)c2ccnc(C(C)(F)F)c2)cc1-c1ccc2c(c1)N1CCOC[C@H]1[C@@](C)(N)C2`, the IC50 worked out at 0.61 nM.
Take `Cc1ncc(NC(=O)c2cccc(C(F)(F)F)c2)cc1-c1cnc2c(c1)N1CCOC[C@H]1[C@](F)(CO)C2`: the IC50 was 1.1 nM.
The same measure for `CNC(=O)C1Cc2ccc(-c3cc(NC(=O)c4ccnc(C(F)(F)F)c4)ccc3C)cc2N2CCOC[C@@H]12` (some centres not stated): 0.032 nM and 0.027 nM; for `Cc1ccc(NC(=O)c2ccnc(C(C)(F)F)c2)cc1-c1ccc2c(c1)N1CCOC[C@@H]1[C@](C)(N)C2`: 0.025 nM.
On to `CNC(=O)C1Cc2ccc(-c3cc(NC(=O)c4ccnc(C(F)(F)F)c4)ccc3C)cc2N2CCOC[C@H]12` (some centres not stated), for which the half-inhibitory concentration (IC50) was 0.028 nM and 0.014 nM.
The same measure for `CNC(=O)[C@@H]1Cc2ccc(-c3cc(NC(=O)c4ccnc(C(F)(F)F)c4)ccc3C)cc2N2CCOC[C@H]12`: 0.13 nM; for `Cc1ccc(NC(=O)c2ccnc(C(F)(F)F)c2)cc1-c1cnc2c(c1)N1CCOCC1[C@H](CO)C2` (mixture of isomers): 0.005 nM.
The figure for `Cc1ccc(NC(=O)c2ccnc(C(F)(F)F)c2)cc1-c1cnc2c(c1)N1CCOCC1C(CS(C)(=O)=O)C2` (racemic) is 0.038 nM; for `Cc1ncc(NC(=O)c2cccc(C(F)(F)F)c2)cc1-c1ccc2c(c1)N1CCOCC1CC2O` (racemic) it is 0.01 nM.
